Laboratory results as given in US12173018B2, “Penicillin-binding protein inhibitors” (priority 2018, dated 2024).
Values after ≈ are worked out from the molar mass of the structure shown. Where two headings read alike, the source gives them in different places.

How the values were obtained:
Type in all cases: cell-based
E. coli AG100 = test: Broth microdilution MIC, E. coli AG100 (wild-type parent); conditions: Escherichia coli; wild-type parent E. coli AG100, broth microdilution; read-out: MIC E. coli AG100
Outline: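 Broth microdilution in cation-supplemented Mueller-Hinton broth, 2-fold serial compound dilutions, inoculum 5×10^5 CFU/mL from 3-5 h log culture.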

E. coli 901C = test: microbe, parasite or virus in culture; conditions: Escherichia coli, read-out: MIC E. coli 901C
Outline: (§1)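 Strains are tested by standard CLSI broth microdilution. Log-phase cells, diluted by OD600 to 5×10^5 CFU/mL, meet 2-fold compound series and incubate 16-20 hours at 37° C before the lowest growth-free concentration is recorded.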

[1] = system: P. aeruginosa (ΔmexAB-oprM); test: microbe, parasite or virus in culture; conditions: Pseudomonas aeruginosa, read-out: MIC P. aeruginosa ΔmexAB-OprM
Outline: as §1

K. pneumoniae UMM = test: microbe, parasite or virus in culture; conditions: Klebsiella pneumoniae, read-out: MIC K. pneumoniae UMM
Outline: as §1

P. aeruginosa ATCC 35151 = test: microbe, parasite or virus in culture; conditions: Pseudomonas aeruginosa
Outline: as §1

E. coli AG100A = test: microbe, parasite or virus in culture; conditions: Escherichia coli, read-out: MIC E. coli AG100A
Outline: as §1

E. coli D22 = test: microbe, parasite or virus in culture; conditions: Escherichia coli
Outline: as §1

K. pneumoniae SI-117 = test: microbe, parasite or virus in culture; conditions: Klebsiella pneumoniae, SI117, read-out: MIC K. pneumoniae SI-117
Outline: as §1

A. baumannii ATCC 19606 = test: Broth microdilution MIC, A. baumannii ATCC 19606; conditions: Acinetobacter baumannii
Outline: as §1

[2] = system: N. gonorrhoeae ATCC 49226; test: Liquid broth MIC, N. gonorrhoeae ATCC 49226; conditions: Neisseria gonorrhoeae
Outline: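 Growth inhibition was scored by eye as the lowest compound concentration free of bacterial growth. Cultures from Kellogg's-supplemented GC agar, diluted to 5×10^5 CFU/mL, were exposed to serially diluted compound for 40-42 h at 36° C under 5% CO2.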

P. aeruginosa PAO1 = test: Broth microdilution MIC, P. aeruginosa PAO1; conditions: Pseudomonas aeruginosa; P. aeruginosa PAO1, broth microdilution; read-out: MIC P. aeruginosa PAO1
Outline: as §1

[3] = hyper-permeable E. coli 901C, broth microdilution
[4] = K. pneumoniae UMM producing SHV-5 and KPC-2
[5] = ATCC35151, hyper-permeable P. aeruginosa ATCC 35151, read-out: MIC P. aeruginosa ATCC 35151
[6] = hyper-permeable E. coli D22, broth microdilution, read-out: MIC E. coli D22
[7] = ATCC19606, A. baumannii ATCC 19606, broth microdilution, read-out: MIC A. baumannii ATCC 19606
[8] = ATCC49226, N. gonorrhoeae ATCC 49226, liquid broth, read-out: Minimum Inhibitory Concentration, N. gonorrhoeae ATCC 49226

| Compound | MIC (E. coli AG100) | MIC (E. coli 901C; [3]) | MIC [1] | MIC (K. pneumoniae UMM; [4]) | MIC (P. aeruginosa ATCC 35151; [5]) | MIC (E. coli AG100A) | MIC (E. coli D22; [6]) | MIC (K. pneumoniae SI-117) | MIC (A. baumannii ATCC 19606; [7]) | MIC [2, 8] | MIC (P. aeruginosa PAO1) | MIC (A. baumannii ATCC 19606; ATCC19606, read-out: MIC A. baumannii ATCC 19606) | MIC ([2]; ATCC49226, read-out: Minimum Inhibitory Concentration, N. gonorrhoeae ATCC 49226) | MIC (E. coli 901C; 901C) | MIC (K. pneumoniae UMM) | MIC (P. aeruginosa ATCC 35151; ATCC35151, read-out: MIC P. aeruginosa ATCC 35151) | MIC (E. coli D22; D22, read-out: MIC E. coli D22) |
| --- | --- | --- | --- | --- | --- | --- | --- | --- | --- | --- | --- | --- | --- | --- | --- | --- | --- |
| CCN1CCN(C(=O)NC(C(=O)N[C@H]2Cc3cccc(C(=O)O)c3OB2O)c2ccc(O)c(O)c2F)C(=O)C1=O (stereo partly shown) [Example 70] | 2 to 4 µg/mL | 0.5 to 1 µg/mL | 0.5 to 1 µg/mL | 0.5 to 1 µg/mL | < 0.25 µg/mL | 0.5 to 1 µg/mL | 2 to 4 µg/mL | 8 to 16 µg/mL | 0.5 to 1 µg/mL | 0.25 to 0.5 µg/mL (≈ 0.448 to 0.896 µM) | 8 to 16 µg/mL | – | – | – | – | – | – |
| O=C(O)c1cccc2c1OB(O)[C@@H](NC(=O)C(NC(=O)N1CCN(CCF)C(=O)C1=O)c1ccc(O)c(O)c1Cl)C2 (stereo partly drawn) [Example 71, (3R)-3-(2-(2-chloro-3,4-dihydroxyphenyl)-2-(4-(2-fluoroethyl)-2,3-dioxopiperazine-1-carboxamido)acetamido)-2-hydroxy-3,4-dihydro-2H-benzo[e][1,2]oxaborinine-8-carboxylic acid] | 2 to 4 µg/mL | 0.5 to 1 µg/mL | 2 to 4 µg/mL | 32 to 64 µg/mL | 0.5 to 1 µg/mL | 2 to 4 µg/mL | – | – | 0.5 to 1 µg/mL | – | 32 to 64 µg/mL | – | – | – | – | – | – |
| CCN1CCN(C(=O)NC(C(=O)N[C@H]2Cc3ccc(F)c(C(=O)O)c3OB2O)c2ccc(O)c(O)c2Cl)C(=O)C1=O (stereo partly drawn) [Example 124, (3R)-3-(2-(2-chloro-3,4-dihydroxyphenyl)-2-(4-ethyl-2,3-dioxopiperazine-1-carboxamido)acetamido)-7-fluoro-2-hydroxy-3,4-dihydro-2H-benzo[e][1,2]oxaborinine-8-carboxylic acid] | 0.5 to 1 µg/mL | < 0.25 µg/mL | < 0.25 µg/mL | 8 to 16 µg/mL | < 0.25 µg/mL | 0.5 to 1 µg/mL | 0.5 to 1 µg/mL | 8 to 16 µg/mL | 0.5 to 1 µg/mL | 1 to 2 µg/mL (≈ 1.69 to 3.37 µM) | 0.5 to 1 µg/mL | – | – | – | – | – | – |
| NCCCN1CCN(C(=O)NC(C(=O)N[C@H]2Cc3cccc(C(=O)O)c3OB2O)c2ccc(O)c(O)c2Cl)C(=O)C1=O (stereo partly drawn) [Example 233, (3R)-3-(2-(4-(3-aminopropyl)-2,3-dioxopiperazine-1-carboxamido)-2-(2-chloro-3,4-dihydroxyphenyl)acetamido)-2-hydroxy-3,4-dihydro-2H-benzo[e][1,2]oxaborinine-8-carboxylic acid] | 0.5 to 1 µg/mL | 0.5 to 1 µg/mL | < 0.25 µg/mL | 2 to 4 µg/mL | < 0.25 µg/mL | 0.5 to 1 µg/mL | 0.5 to 1 µg/mL | 2 to 4 µg/mL | 2 to 4 µg/mL | > 64 µg/mL | – | – | – | – | – | – | – |
| CCN1C[C@H](CO)N(C(=O)NC(C(=O)N[C@H]2Cc3cccc(C(=O)O)c3OB2O)c2ncc(O)cc2F)C(=O)C1=O (stereo partly drawn) [Example 234, (3R)-3-(2-((R)-4-ethyl-6-(hydroxymethyl)-2,3-dioxopiperazine-1-carboxamido)-2-(3-fluoro-5-hydroxypyridin-2-yl)acetamido)-2-hydroxy-3,4-dihydro-2H-benzo[e][1,2]oxaborinine-8-carboxylic acid] | > 128 µg/mL | 2 to 4 µg/mL | 32 to 64 µg/mL | 32 to 64 µg/mL | 8 to 16 µg/mL | 8 to 16 µg/mL | 8 to 16 µg/mL | > 128 µg/mL | – | – | – | > 128 µg/mL | 16 to 32 µg/mL (≈ 27.9 to 55.8 µM) | – | – | – | – |
| CCNC(=O)NCCN1CCN(C(=O)NC(C(=O)N[C@H]2Cc3cccc(C(=O)O)c3OB2O)c2ccc(O)c(O)c2Cl)C(=O)C1=O (stereo partly drawn) [Example 235, (3R)-3-(2-(2-chloro-3,4-dihydroxyphenyl)-2-(4-(2-(3-ethylureido)ethyl)-2,3-dioxopiperazine-1-carboxamido)acetamido)-2-hydroxy-3,4-dihydro-2H-benzo[e][1,2]oxaborinine-8-carboxylic acid] | 8 to 16 µg/mL | 2 to 4 µg/mL | < 0.25 µg/mL | 2 to 4 µg/mL | < 0.25 µg/mL | 2 to 4 µg/mL | 2 to 4 µg/mL | 8 to 16 µg/mL | 0.5 to 1 µg/mL | > 64 µg/mL | – | – | – | – | – | – | – |
| NCCCN1CCN(C(=O)N[C@@H](C(=O)N[C@H]2Cc3ccc(F)c(C(=O)O)c3OB2O)c2ccc(O)c(O)c2Cl)C(=O)C1=O [Example 236, (R)-3-((R)-2-(4-(3-aminopropyl)-2,3-dioxopiperazine-1-carboxamido)-2-(2-chloro-3,4-dihydroxyphenyl)acetamido)-7-fluoro-2-hydroxy-3,4-dihydro-2H-benzo[e][1,2]oxaborinine-8-carboxylic acid] | 0.5 to 1 µg/mL | 0.5 to 1 µg/mL | < 0.25 µg/mL | 0.5 to 1 µg/mL | < 0.25 µg/mL | 0.5 to 1 µg/mL | 0.5 to 1 µg/mL | 0.5 to 1 µg/mL | < 0.25 µg/mL | 16 to 32 µg/mL (≈ 25.7 to 51.5 µM) | – | – | – | – | – | – | – |
| CCN1C[C@H](CO)N(C(=O)NC(C(=O)N[C@H]2Cc3ccc(F)c(C(=O)O)c3OB2O)c2ccc(O)c(O)c2Cl)C(=O)C1=O (stereo partly drawn) [Example 237, (3R)-3-(2-(2-chloro-3,4-dihydroxyphenyl)-2-((R)-4-ethyl-6-(hydroxymethyl)-2,3-dioxopiperazine-1-carboxamido)acetamido)-7-fluoro-2-hydroxy-3,4-dihydro-2H-benzo[e][1,2]oxaborinine-8-carboxylic acid] | 0.5 to 1 µg/mL | < 0.25 µg/mL | < 0.25 µg/mL | 2 to 4 µg/mL | < 0.25 µg/mL | < 0.25 µg/mL | < 0.25 µg/mL | 2 to 4 µg/mL | < 0.25 µg/mL | 4 to 8 µg/mL (≈ 6.42 to 12.8 µM) | – | – | – | – | – | – | – |
| CCN1C[C@H](CCN)N(C(=O)NC(C(=O)N[C@H]2Cc3ccc(F)c(C(=O)O)c3OB2O)c2ccc(O)c(O)c2Cl)C(=O)C1=O (stereo partly drawn) [Example 238, (3R)-3-(2-((S)-6-(2-aminoethyl)-4-ethyl-2,3-dioxopiperazine-1-carboxamido)-2-(2-chloro-3,4-dihydroxyphenyl)acetamido)-7-fluoro-2-hydroxy-3,4-dihydro-2H-benzo[e][1,2]oxaborinine-8-carboxylic acid] | 2 to 4 µg/mL | – | < 0.25 µg/mL | – | – | 2 to 4 µg/mL | – | 8 to 16 µg/mL | 0.5 to 1 µg/mL | > 64 µg/mL | – | – | – | 2 to 4 µg/mL | 8 to 16 µg/mL | < 0.25 µg/mL | 8 to 16 µg/mL |
| CNCCN1CCN(C(=O)NC(C(=O)N[C@H]2Cc3cccc(C(=O)O)c3OB2O)c2ccc(O)c(O)c2Cl)C(=O)C1=O (stereo partly drawn) [Example 239, (3R)-3-(2-(2-chloro-3,4-dihydroxyphenyl)-2-(4-(2-(methylamino)ethyl)-2,3-dioxopiperazine-1-carboxamido)acetamido)-2-hydroxy-3,4-dihydro-2H-benzo[e][1,2]oxaborinine-8-carboxylic acid] | 2 to 4 µg/mL | 2 to 4 µg/mL | < 0.25 µg/mL | 2 to 4 µg/mL | < 0.25 µg/mL | 2 to 4 µg/mL | 2 to 4 µg/mL | > 128 µg/mL | 0.5 to 1 µg/mL | > 64 µg/mL | – | – | – | – | – | – | – |
